Test results: patent US20190374618A1, “FIBRONECTIN OR ILK INHIBITORS FOR USE IN THE TREATMENT OF LEUKEMIA” (Chemotherapeutisches Forschungsinstitut Georg-Speyer-Haus, priority 2016, published 2019)

Assays:
[1] = patients, cardiovascular toxicity reference; cited from earlier work
[2] = test system: BCR-ABL1^T315I+ CML; experiment: intrafemoral co-injection of fibronectin with leukemia-initiating cells, retroviral transduction/transplantation model of CML; type: in vivo, mouse (Balb/c)
From the text: FIG. 7: White blood cell counts per μl in peripheral blood (a) and survival (b) of mice intravenously transplanted (no FN) or intrafemorally co-transplanted with BCR-ABL1 (gray colors)- or BCR-ABL1T315I (blue colors)-transduced bone marrow and vehicle or FN.
(§1) The inventors have shown by immunofluorescence (FIG. 5) and immunohistochemistry of bone sections of mice transplanted with empty vector-transduced cells, or mice with BCR-ABL1^WT+ or BCR-ABL1^T315I+ CML-like myeloproliferative neoplasia (FIG. 6), that BCR-ABL1^T315I+ cells deposit less fibronectin in their environment than BCR-ABL1^WT+ cells, which is likely also reflected by their differences in their interaction with the BMM.
(§2) Our retroviral stock was generated and bone marrow transplantation experiments were performed as described earlier (9, 14, 16). In general, we injected between 2.25 and 2.5×10^5 transduced cells into female irradiated (750 cGy) Balb/c recipient mice. The T315I point mutation in BCR-ABL1 was introduced by site-directed mutagenesis in the open reading frame of the MSCV IRES GFP vector.
(§3) Therapeutic application of fibronectin was performed as follows: intravenous application of 200 μg bovine fibronectin (in HBSS) on days 9, 10 and 12 post transplantation; for vehicle control treatments, 200 μl of HBSS (equal volume to fibronectin dose) was administered. […]

[3] = test system: BCR-ABL1^T315I+ CML; experiment: intravenous fibronectin on days 9, 10 and 12 post transplantation, retroviral transduction/transplantation model of CML; type: in vivo, mouse (Balb/c); conditions: three intravenous injections on days 9, 10 and 12 post transplantation, BCR-ABL1T315I+ CML vs vehicle-treated mice, FIG. 8
From the text: FIG. 8: Kaplan-Meier survival curve of mice intravenously transplanted with BCR-ABL1 (gray colours) or BCR-ABL1T315I (blue colours)-transduced bone marrow treated with vehicle or FN on days 9, 10 and 12 after transplantation.
as §1, §2, §3

[4] = test system: LSC in CML; conditions: but not AML; cited from earlier work

Molecule: Cc1cn(-c2cc(NC(=O)c3ccc(C)c(Nc4nccc(-c5cccnc5)n4)c3)cc(C(F)(F)F)c2)cn1 [nilotinib]
- adverse events [1]: frequently associated with severe adverse events

Molecule: Cc1nc(Nc2ncc(C(=O)Nc3c(C)cccc3Cl)s2)cc(N2CCN(CCO)CC2)n1 [dasatinib]
- adverse events [1]: frequently associated with severe adverse events

Molecule: Cc1ccc(C(=O)Nc2ccc(CN3CCN(C)CC3)c(C(F)(F)F)c2)cc1C#Cc1cnc2cccnn12 [ponatinib]
- adverse events [1]: frequently associated with severe adverse events

Molecule: fibronectin: Murine fibronectin (Abcam ab92784) for intrafemoral injection; lyophilized bovine fibronectin (Thermo Fisher 33010018) for intravenous application
- tumor burden (white blood cell counts per μl in peripheral blood) ([2]; intrafemoral co-injection of fibronectin with BCR-ABL1WT+ or BCR-ABL1T315I+ leukemia-initiating cells vs vehicle, FIG. 7a): significantly decreased the tumor burden
- survival ([2]; recipients of BCR-ABL1T315I-transduced bone marrow, intrafemoral co-injection vs vehicle, FIG. 7b): prolonged survival
- survival [3]: significant prolongation of survival

B1: parathyroid hormone: the most potent regulator of bone turnover (protein, UniProt P01270 32-115, looked up)
Parathyroid hormone: SVSEIQLMHNLGKHLNSMERVEWLRKKLQDVHNFVALGAPLAPRDAGSQRPRKKEDNVLVESHEKSLGEADKADVNVLTKAKSQ
modifications: Parathyroid hormone
- LSC number [4]: reduction of LSC in CML
